This is an account of results in patent US11066369B2, “N-(pyridin-2-yl)pyridine-sulfonamide derivatives and their use in the treatment of disease” (Novartis AG, priority 2016, dated 2021).

Structures can show the parent of a compound that is named as a salt. Where two headings read alike, the source gives them in different places.

The target in test [1] is T1, horseradish peroxidase (HRP) tagged delF508-CFTR (Homo sapiens, UniProt P13569, DEL508-508).
T1 construct: expressed in transfected cells
The test is described as follows: Measurement of delF508-CFTR-HRP surface expression in CFBE41o- cells.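 On DelF508-CFTR-HRP Amax %: percent efficacy relative to reference corrector lumacaftor.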 In kind it is cell-based. Particulars: for Emax: read-out: DelF508-CFTR-HRP Amax %. An outline of the steps: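 CFBE41o- bronchial epithelial cells stably expressing delF508-CFTR with HRP in the fourth extracellular loop; expression induced 48h with 500 ng/mL doxycycline, then compounds added (top 10 μM, 10-point 3-fold series, ≤0.5% DMSO) for 24h at 37° C. Surface HRP measured by luminescence with cell-impermeant substrate; EC50 from logistic fit of triplicates, plate-normalized to lowest concentration; efficacy also relative to a reference corrector.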

Another test has as its target T2, delF508-CFTR (Homo sapiens, UniProt P13569, DEL508-508).
T2 construct: functional activity of the CFTR channel (Chloride ion transport) in patient derived primary human bronchial epithelial cells; host or cells: patient-derived primary human bronchial epithelial cells (delF508-CFTR)
The test is described as follows: Measurement of delF508-CFTR functional activity in primary human bronchial epithelial cells (HBECs) using Multi-Transepithelial Clamp Circuit (MTECC-24) assay. Particulars: primary CF HBECs; for MTECC24 CFHBEC- Amax %: test compound added 24h before assay plus potentiator, relative to reference combination (2 μM corrector + 0.5 μM potentiator); for EC50: test compound added 24h before assay, in the presence of potentiator, mean of at least two replicates, read-out: MTECC24 CFHBEC- EC50. The format is cell-based. An outline of the steps:
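Patient-derived primary delF508-CFTR HBECs, differentiated at air-liquid interface ~2 weeks, treated basolaterally with compound for 24 h, then apical and basolateral compound in HEPES pH 7.4 assay medium. Equivalent short-circuit current (Ieq) recorded on MTECC-24 with sequential amiloride, forskolin, potentiator and INH-172; normalized to 0.1% DMSO, EC50 from curve fit.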

[2] abbreviates: delF508-CFTR-HRP surface expression, CFBE41o- cells.
Where [3] appears, read: delF508-CFTR-HRP surface expression, CFBE41o- cells, read-out: DelF508-CFTR-HRP EC50.

T1 sequence (P13569 with tags, fused parts or gaps DEL508-508): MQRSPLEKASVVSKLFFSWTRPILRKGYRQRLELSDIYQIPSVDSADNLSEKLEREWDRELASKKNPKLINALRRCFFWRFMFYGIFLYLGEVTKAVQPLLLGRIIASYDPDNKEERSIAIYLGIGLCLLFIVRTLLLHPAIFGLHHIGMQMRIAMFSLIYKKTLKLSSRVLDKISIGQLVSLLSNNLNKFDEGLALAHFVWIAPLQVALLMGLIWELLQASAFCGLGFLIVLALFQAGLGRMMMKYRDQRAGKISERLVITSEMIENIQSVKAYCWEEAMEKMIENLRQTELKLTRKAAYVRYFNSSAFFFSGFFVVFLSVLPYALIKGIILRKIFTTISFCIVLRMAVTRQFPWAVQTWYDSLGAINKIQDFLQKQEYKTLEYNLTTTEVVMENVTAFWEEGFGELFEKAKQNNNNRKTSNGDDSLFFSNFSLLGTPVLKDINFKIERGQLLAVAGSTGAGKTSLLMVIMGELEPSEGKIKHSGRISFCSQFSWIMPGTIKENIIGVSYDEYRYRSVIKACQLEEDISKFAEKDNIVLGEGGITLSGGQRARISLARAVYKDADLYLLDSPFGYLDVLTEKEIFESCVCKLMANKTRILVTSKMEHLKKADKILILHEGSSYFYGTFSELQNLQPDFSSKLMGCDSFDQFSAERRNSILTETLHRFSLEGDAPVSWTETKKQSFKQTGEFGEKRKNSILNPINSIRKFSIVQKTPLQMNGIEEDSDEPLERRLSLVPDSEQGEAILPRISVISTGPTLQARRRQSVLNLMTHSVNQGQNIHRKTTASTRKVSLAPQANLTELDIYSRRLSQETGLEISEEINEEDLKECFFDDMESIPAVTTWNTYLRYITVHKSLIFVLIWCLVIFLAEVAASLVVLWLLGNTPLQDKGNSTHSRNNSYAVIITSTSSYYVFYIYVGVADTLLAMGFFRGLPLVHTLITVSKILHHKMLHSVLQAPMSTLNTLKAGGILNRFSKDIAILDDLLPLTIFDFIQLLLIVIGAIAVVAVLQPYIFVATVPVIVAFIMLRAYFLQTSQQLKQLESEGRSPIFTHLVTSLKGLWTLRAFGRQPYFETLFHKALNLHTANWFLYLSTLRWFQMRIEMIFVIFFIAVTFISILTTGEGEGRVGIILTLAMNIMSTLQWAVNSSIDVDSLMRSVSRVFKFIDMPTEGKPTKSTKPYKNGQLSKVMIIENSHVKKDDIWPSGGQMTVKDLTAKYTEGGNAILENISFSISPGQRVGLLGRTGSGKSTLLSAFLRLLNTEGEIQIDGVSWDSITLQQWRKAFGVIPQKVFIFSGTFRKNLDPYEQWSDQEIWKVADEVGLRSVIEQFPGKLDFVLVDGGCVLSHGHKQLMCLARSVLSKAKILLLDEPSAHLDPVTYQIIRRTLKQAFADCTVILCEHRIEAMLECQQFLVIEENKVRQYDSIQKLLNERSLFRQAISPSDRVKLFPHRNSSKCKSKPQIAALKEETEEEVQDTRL
T2 sequence (P13569 with tags, fused parts or gaps DEL508-508): as above

Consider `Cc1ccc(F)cc1-c1nc(NS(=O)(=O)c2cccc(N3C[C@@H](C)N[C@@H](C)C3)n2)ccc1C(F)(F)F` [Example 178, 6-((3S,5R)-3,5-dimethylpiperazin-1-yl)-N-(6-(5-fluoro-2-methylphenyl)-5-(trifluoromethyl)pyridin-2-yl)pyridine-2-sulfonamide Hydrochloride], for which the Emax in test [1] (setting [2]) was 231%. Moreover, in test [1] (setting [3]), the 50% effective concentration (EC50) is 1150 nM. For the same compound, on delF508-CFTR, the “MTECC24 CFHBEC- Amax %” value turned out to be 66.3% and the EC50 came out at 209 nM.

Take `Cc1ccc(F)cc1-c1nc(NS(=O)(=O)c2cccc(N3CCN(C)CC3)n2)ccc1C(F)(F)F` [Example 179, N-(6-(5-fluoro-2-methylphenyl)-5-(trifluoromethyl)pyridin-2-yl)-6-(4-methylpiperazin-1-yl)pyridine-2-sulfonamide]: the concentration giving a half-maximal response (EC50) in test [1] (setting [3]) was 2080 nM. On delF508-CFTR, the “MTECC24 CFHBEC- Amax %” value came out at 91.9% and the EC50 was 31.6 nM.

`CC(=O)N1CCN(c2cccc(S(=O)(=O)Nc3ccc(C(F)(F)F)c(-c4cc(F)ccc4C)n3)n2)CC1` [Example 180, 6-(4-acetylpiperazin-1-yl)-N-(6-(5-fluoro-2-methylphenyl)-5-(trifluoromethyl)pyridin-2-yl)pyridine-2-sulfonamide]: in test [1] (setting [2]), the Emax is 627%. In addition, the EC50 in test [1] (setting [3]) was 1500 nM. Also, on delF508-CFTR, the “MTECC24 CFHBEC- Amax %” value came to 44.5% and the EC50 stood at 9.4 nM.

In turn, `Cc1ccccc1-c1nc(NS(=O)(=O)c2cccc(N3CC4CCC(C3)N4)n2)ccc1C(F)(F)F` [Example 181, 6-(3,8-diazabicyclo[3.2.1]octan-3-yl)-N-(6-(o-tolyl)-5-(trifluoromethyl)pyridin-2-yl)pyridine-2-sulfonamide Hydrochloride] yielded a concentration giving a half-maximal response (EC50) in test [1] of 2670 nM. Moreover, the Emax in test [1] (CFBE41o-) was 454%. In addition, at delF508-CFTR, the “MTECC24 CFHBEC- Amax %” value was 101.5% and the EC50 was determined as 39.8 nM.

With `Cc1ccccc1-c1nc(NS(=O)(=O)c2cccc(N3CCN(CCO)CC3)n2)ccc1C(F)(F)F` [Example 182, 6-(4-(2-hydroxyethyl)piperazin-1-yl)-N-(6-(o-tolyl)-5-(trifluoromethyl)pyridin-2-yl)pyridine-2-sulfonamide Hydrochloride], in test [1] (setting [2]), the Emax amounted to 485%. Also, the half-maximal effective concentration (EC50) in test [1] (setting [3]) worked out at 3220 nM. At delF508-CFTR, the “MTECC24 CFHBEC- Amax %” value came to 89.6% and the 50% effective concentration (EC50) came to 87.8 nM.

In the case of `Cc1ccccc1-c1nc(NS(=O)(=O)c2cccc(N3CCN(CC(N)=O)CC3)n2)ccc1C(F)(F)F` [Example 183, 2-(4-(6-(N-(6-(o-tolyl)-5-(trifluoromethyl)pyridin-2-yl)sulfamoyl)pyridin-2-yl)piperazin-1-yl)acetamide], the Emax in test [1] (setting [2]) was 191%. Besides, the concentration giving a half-maximal response (EC50) in test [1] (setting [3]) was determined as 896 nM. At delF508-CFTR, the “MTECC24 CFHBEC- Amax %” value was found to be 67.8% and the EC50 turned out to be 74.9 nM.

Take `Cc1ccccc1-c1nc(NS(=O)(=O)c2cccc(N3CCN(C(N)=O)CC3)n2)ccc1C(F)(F)F` [Example 184, 4-(6-(N-(6-(o-tolyl)-5-(trifluoromethyl)pyridin-2-yl)sulfamoyl)pyridin-2-yl)piperazine-1-carboxamide]: the Emax in test [1] (setting [2]) was determined as 149%. Also, the EC50 in test [1] (setting [3]) is 835 nM. Moreover, on delF508-CFTR, the “MTECC24 CFHBEC- Amax %” value was determined as 69.2% and the EC50 turned out to be 53.5 nM.

As to `Cc1ccccc1-c1nc(NS(=O)(=O)c2cccc(N3CCN(CC(F)F)CC3)n2)ccc1C(F)(F)F` [Example 185, 6-(4-(2,2-difluoroethyl)piperazin-1-yl)-N-(6-(o-tolyl)-5-(trifluoromethyl)pyridin-2-yl)pyridine-2-sulfonamide], the Emax in test [1] (setting [2]) amounted to 877%. Besides, the results for the EC50 (in test [1] (setting [3]); at delF508-CFTR) were 1460 nM and 4.6 nM, respectively. For the same compound, the “MTECC24 CFHBEC- Amax %” value on delF508-CFTR is given as 105.5%.

Consider `Cc1ccccc1-c1nc(NS(=O)(=O)c2cccc(N3CCN(CC(F)(F)F)CC3)n2)ccc1C(F)(F)F` [Example 186, N-(6-(o-tolyl)-5-(trifluoromethyl)pyridin-2-yl)-6-(4-(2,2,2-trifluoroethyl)piperazin-1-yl)pyridine-2-sulfonamide], for which the EC50 in test [1] (setting [3]) worked out at 1190 nM. On delF508-CFTR, the “MTECC24 CFHBEC- Amax %” value is 81.5% and the EC50 came out at 2.6 nM.

On to `Cc1ccccc1-c1nc(NS(=O)(=O)c2cccc(N3CCN(C4COC4)CC3)n2)ccc1C(F)(F)F` [Example 187, 6-(4-(oxetan-3-yl)piperazin-1-yl)-N-(6-(o-tolyl)-5-(trifluoromethyl)pyridin-2-yl)pyridine-2-sulfonamide], for which the Emax in test [1] (setting [2]) was 634%. Further, the figures for the EC50 (in test [1] (setting [3]); on delF508-CFTR) were 2560 nM and 92 nM, respectively. Moreover, the “MTECC24 CFHBEC- Amax %” value on delF508-CFTR stood at 78.8%.

Consider `Cc1ccccc1-c1nc(NS(=O)(=O)c2cccc(N3CCN(C)CC3)n2)ccc1C(F)(F)F` [Example 189, 6-(4-methylpiperazin-1-yl)-N-(6-(o-tolyl)-5-(trifluoromethyl)pyridin-2-yl)pyridine-2-sulfonamide], for which the Emax in test [1] (setting [2]) is 414%. Besides, the EC50 in test [1] (setting [3]) worked out at 2830 nM. At delF508-CFTR, the “MTECC24 CFHBEC- Amax %” value was found to be 79.0% and the EC50 amounted to 31.7 nM.

As to `Cc1ccccc1-c1nc(NS(=O)(=O)c2cccc(N3CCNC(=O)C3)n2)ccc1C(F)(F)F` [Example 190, 6-(3-oxopiperazin-1-yl)-N-(6-(o-tolyl)-5-(trifluoromethyl)pyridin-2-yl)pyridine-2-sulfonamide], the Emax in test [1] (setting [2]) was determined as 565%. Moreover, the results for the EC50 (in test [1] (setting [3]); at delF508-CFTR) were 3410 nM and 13.2 nM, respectively. The “MTECC24 CFHBEC- Amax %” value on delF508-CFTR turned out to be 64.5%.

As to `Cc1ccccc1-c1nc(NS(=O)(=O)c2cccc(N3CCN(C(=O)CN)CC3)n2)ccc1C(F)(F)F` [Example 191, 6-(4-glycylpiperazin-1-yl)-N-(6-(o-tolyl)-5-(trifluoromethyl)pyridin-2-yl)pyridine-2-sulfonamide hydrochloride], the Emax in test [1] (setting [2]) came to 206%. The EC50 in test [1] (setting [3]) is 3860 nM. Besides, at delF508-CFTR, the “MTECC24 CFHBEC- Amax %” value amounted to 64.4% and the half-maximal effective concentration (EC50) is 101 nM.

As for `Cc1cccc(C)c1-c1nc(NS(=O)(=O)c2cccc(N3CCNCC3=O)n2)ccc1Cl` [Example 192, N-(5-chloro-6-(2,6-dimethylphenyl)pyridin-2-yl)-6-(2-oxopiperazin-1-yl)pyridine-2-sulfonamide hydrochloride], the Emax in test [1] (setting [2]) came to 279%. The concentration for a half-maximal effect (EC50) in test [1] (setting [3]) was 2520 nM. At delF508-CFTR, the “MTECC24 CFHBEC- Amax %” value came to 42.3% and the EC50 is 16.1 nM.

As for `Cc1ccc(F)cc1-c1nc(NS(=O)(=O)c2cccc(N3CCNCC3)n2)ccc1Cl` [Example 193, N-(5-chloro-6-(5-fluoro-2-methylphenyl)pyridin-2-yl)-6-(piperazin-1-yl)pyridine-2-sulfonamide hydrochloride], the Emax in test [1] (setting [2]) was 385%. In test [1] (setting [3]), the EC50 is 3920 nM. Further, at delF508-CFTR, the “MTECC24 CFHBEC- Amax %” value is on record as 81.2% and the EC50 came out at 178 nM.

Consider `Cc1ccccc1-c1nc(NS(=O)(=O)c2cccc(N3CCNCC3)n2)ccc1Cl` [Example 195, N-(5-chloro-6-(o-tolyl)pyridin-2-yl)-6-(piperazin-1-yl)pyridine-2-sulfonamide hydrochloride], for which the Emax in test [1] (setting [2]) came to 213%. Also, the concentration giving a half-maximal response (EC50) turned out to be 3380 nM in test [1] (setting [3]) and 464 nM on delF508-CFTR. Further, the “MTECC24 CFHBEC- Amax %” value at delF508-CFTR is on record as 80.0%.

For the compound `Cc1ccccc1-c1nc(NS(=O)(=O)c2cccc(N3CCN(C)C(=O)C3)n2)ccc1C(F)(F)F` [Example 196, 6-(4-methyl-3-oxopiperazin-1-yl)-N-(6-(o-tolyl)-5-(trifluoromethyl)pyridin-2-yl)pyridine-2-sulfonamide], in test [1] (setting [2]), the Emax is 389%. The EC50 in test [1] (setting [3]) worked out at 3060 nM. Besides, at delF508-CFTR, the “MTECC24 CFHBEC- Amax %” value is 82.4% and the EC50 amounted to 9.6 nM.

As for `Cc1cccc(C)c1-c1nc(NS(=O)(=O)c2cccc(N3CCN(C)CC3=O)n2)ccc1Cl` [Example 197, N-(5-chloro-6-(2,6-dimethylphenyl)pyridin-2-yl)-6-(4-methyl-2-oxopiperazin-1-yl)pyridine-2-sulfonamide], the Emax in test [1] (setting [2]) was 500%. In addition, the half-maximal effective concentration (EC50) in test [1] (setting [3]) stood at 3650 nM; on delF508-CFTR, 67 nM. In addition, the “MTECC24 CFHBEC- Amax %” value at delF508-CFTR was found to be 73.9%.

For the compound `Cc1cccc(C)c1-c1nc(NS(=O)(=O)c2cccc(N3CCn4cc(C(F)(F)F)nc4C3)n2)ccc1Cl` [Example 199, N-(5-chloro-6-(2,6-dimethylphenyl)pyridin-2-yl)-6-(2-(trifluoromethyl)-5,6-dihydroimidazo[1,2-a]pyrazin-7(8H)-yl)pyridine-2-sulfonamide], the Emax in test [1] (setting [2]) came to 700%. For the same compound, the EC50 in test [1] (setting [3]) stood at 2220 nM. Moreover, on delF508-CFTR, the “MTECC24 CFHBEC- Amax %” value came out at 87.1% and the EC50 amounted to 38.3 nM.

For the compound `Cc1ccc(F)cc1-c1nc(NS(=O)(=O)c2cccc(N3CC4CCC3CN4)n2)ccc1C(F)(F)F` (stereo not drawn) [Example 201, 6-(2,5-diazabicyclo[2.2.2]octan-2-yl)-N-(6-(5-fluoro-2-methylphenyl)-5-(trifluoromethyl)pyridin-2-yl)pyridine-2-sulfonamide Hydrochloride], in test [1] (setting [2]), the Emax was found to be 570%. Also, the results for the EC50 (in test [1] (setting [3]); at delF508-CFTR) were 2620 nM and 135 nM, respectively. Also, the “MTECC24 CFHBEC- Amax %” value at delF508-CFTR amounted to 75.9%.
